Laboratory results: PubChem BioAssay (NCI)
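How tested: cells in 96-well plates exposed to compound for 48 hours at five concentrations. Definition used: TGI = concentration required for complete inhibition of growth.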

Tests used:
Assay in all cases: NCI tumour cell line growth inhibition, 48 h
A498 renal = system: A498 renal
ACHN renal = system: ACHN renal
CCRF-CEM leukemia = system: CCRF-CEM leukemia
HCC-2998 colon = system: HCC-2998 colon
HL-60(TB) leukemia = system: HL-60(TB) leukemia
HOP-62 NSCLC = system: HOP-62 NSCLC
HOP-92 NSCLC = system: HOP-92 NSCLC
HT29 colon = system: HT29 colon
OVCAR-5 ovarian = system: OVCAR-5 ovarian
SF-295 CNS = system: SF-295 CNS
SF-539 CNS = system: SF-539 CNS
SK-OV-3 ovarian = system: SK-OV-3 ovarian
SNB-75 CNS = system: SNB-75 CNS
U251 CNS = system: U251 CNS
UO-31 renal = system: UO-31 renal
DU-145 prostate = system: DU-145 prostate
NCI-H522 lung = system: NCI-H522 lung
OVCAR-8 ovarian = system: OVCAR-8 ovarian
TK-10 renal = system: TK-10 renal

| Compound | TGI (A498 renal) [µM] | TGI (ACHN renal) [µM] | TGI (CCRF-CEM leukemia) [µM] | TGI (HCC-2998 colon) [µM] | TGI (HL-60(TB) leukemia) [µM] | TGI (HOP-62 NSCLC) [µM] | TGI (HOP-92 NSCLC) [µM] | TGI (HT29 colon) [µM] | TGI (OVCAR-5 ovarian) [µM] | TGI (SF-295 CNS) [µM] | TGI (SF-539 CNS) [µM] | TGI (SK-OV-3 ovarian) [µM] | TGI (SNB-75 CNS) [µM] | TGI (U251 CNS) [µM] | TGI (UO-31 renal) [µM] | TGI (DU-145 prostate) [µM] | TGI (NCI-H522 lung) [µM] | TGI (OVCAR-8 ovarian) [µM] | TGI (TK-10 renal) [µM] |
| --- | --- | --- | --- | --- | --- | --- | --- | --- | --- | --- | --- | --- | --- | --- | --- | --- | --- | --- | --- |
| Cc1ccc(C2[C@H]3C(=O)N(c4ccc(Cc5ccc(N6C(=O)[C@@H]7ON(c8ccccc8)C(c8ccc(C)cc8)[C@@H]7C6=O)cc5)cc4)C(=O)[C@H]3ON2c2ccccc2)cc1 (stereo partly drawn) | > 100 | > 100 | > 100 | > 100 | > 100 | > 100 | > 100 | > 100 | > 100 | > 100 | > 100 | > 100 | > 100 | > 100 | > 100 | – | – | – | – |
| CCOC(=O)c1csc(C(CSCc2ccc(OC)cc2)N2C(=O)c3ccccc3C2=O)n1 (stereo not drawn) | > 100 | > 100 | > 100 | > 100 | > 100 | > 100 | > 100 | > 100 | > 100 | > 100 | > 100 | > 100 | – | > 100 | > 100 | > 100 | 58.4 | > 100 | > 100 |
| CC1(C2COC(=O)C2)SCCCS1 (stereo not drawn) | – | > 100 | > 100 | > 100 | > 100 | > 100 | > 100 | > 100 | – | > 100 | > 100 | > 100 | > 100 | – | 28.1 | – | 10.9 | > 100 | > 100 |
| CCCCCCCCCCCCCCCCCCOCC(C[N+]1(C)CCC(O)CC1)OCC (stereo not drawn) | 54.9 | – | 5.55 | 31.7 | 8.42 | 16.7 | 4.49 | 14.9 | – | 17.9 | 32.8 | 8.22 | 19.2 | – | 27.5 | – | 31 | 41.4 | 20.5 |
| NCCCC(N=Cc1nc(-c2ccccc2)oc1O)C(=O)O (stereo not drawn) | > 100 | > 100 | > 100 | > 100 | > 100 | > 100 | > 100 | > 100 | > 100 | > 100 | > 100 | > 100 | > 100 | > 100 | > 100 | – | > 100 | > 100 | > 100 |
| COc1ccc(/C=N/N=C(\N)NO)cc1F | – | 45.3 | > 100 | > 100 | > 100 | 72.5 | 76.2 | 38.3 | 97.2 | 87.6 | 60.1 | > 100 | 89.5 | > 100 | 39.6 | – | 87.1 | > 100 | > 100 |
